{"source": "paper PMC4603303", "about": "“Activity of Novel Synthetic Peptides against Candida albicans” (Scientific Reports, 2015)", "key": {"[1]": {"tested_on": "Candida strains", "assay": "MIC, broth microdilution, range stated over several Candida strains", "type": "cell-based, Candida spp.", "protocol": "(§1) C. albicans strains SC5314 and ATCC 90028, C. krusei ATCC 6258 and C. parapsilosis ATCC 22019 were used in the study. The strains were stored at −80°C in nutrient broth supplemented with 2.0% glycerol stock. Prior to experimentation, each strain was streaked for single colonies on Sabouraud Dextrose (SDA) agar plates and incubated overnight at 37°C.\n(§2) Antifungal activity of the designed peptides was determined according to a standardized broth microdilution method (Clinical and Laboratory Standards Institute (CLSI) document M27-A2). Briefly, the yeast colonies from 24- hour-old cultures of Candida species were picked and resuspended in 5 mL of sterile 0.145 mol/L saline and adjusted to cell density of 1 × 10^6 to 5 × 10^6 cells/ml. The yeast stock suspension was then diluted to obtain a starting inoculum of 5.0 × 10^2 to 2.5 × 10^3 cells/ml. […] The drugs were dissolved in DMSO and prepared to a stock concentration of 25 mg/L and 50 mg/L, respectively. […] 100 μL of standardized yeast suspension was then added to each well. Plates were incubated for 48 hours at 37°C. The minimum inhibitory concentration (MIC) was defined as the lowest concentration that inhibited 90% growth of Candida species. The MICs were determined three times and each time in duplicate."}, "[2]": {"tested_on": "VK2/E6E7 cell line", "assay": "cells", "settings": "Homo sapiens", "protocol": "(§3) The human normal vaginal epithelial cell line VK2/E6E7 (ATCC® CRL-2616™) and human normal esophagus epithelial cell line Het-1A (ATCC® CRL-2692™) were used for cytotoxicity testing. VK2/E6E7 cell line was grown in Keratinocyte-Serum Free medium (GIBCO-BRL 17005-042) supplemented with 0.1 ng/ml human recombinant EGF, 0.05 mg/ml bovine pituitary extract, and 44.1 mg/L calcium chloride. […] Cell viability was measured by using CellTiter 96® Aqueous Non-Radioactive Cell Proliferation Assay (Promega, USA) and the colourimetric changes were determined at 490 nm using a microplate reader. […] Results were recorded by averaging three repeated experiments and each experiment was performed in duplicate."}, "[3]": {"tested_on": "Het-1A cell line", "assay": "cells", "settings": "Homo sapiens, HET-1A", "protocol": "as §3"}, "[4]": {"tested_on": "C. albicans SC5314", "assay": "Time killing assay", "type": "cell-based, Candida albicans", "settings": "2× MIC", "protocol": "A fungal suspension was adjusted to a 0.5 McFarland turbidity standard with cell density of 1 × 10^6 to 5 × 10^6 cells/ml. 100 μL of adjusted yeast suspension was exposed to 900 μL of RPMI medium containing peptide, yielding a starting inoculum of approximately 10^5 cells/ml. The solutions were incubated at 37°C with agitation. At the predetermined time interval of 0, 1, 2, 4 and 6 hours, 10 μL or 30 μL of the samples were removed, serially diluted with phosphate-buffered saline (PBS) and plated on SDA plates to allow colony counts after 24 hours of incubation. Controls for yeast growth and antifungal agents were also performed. The lower limit of accurate and reproducible quantitation was 100 CFU/ml. Results were obtained from three independent experiments."}, "[5]": {"tested_on": "C. albicans SC5314 biofilms", "assay": "Biofilm reduction assay (XTT)", "type": "cell-based, Candida albicans", "settings": "minimum concentration giving 50% reduction of viability of 24 h-old biofilm, 24 h treatment, 1-4× MIC tested", "protocol": "Biofilms of C. albicans were formed on commercially available pre-sterilized, polystyrene, flat bottomed 96 well microtitre plates as described by Jin et al with modification. Firstly, a standardized yeast suspension (10^7 cells/ml) of C. albicans SC5314 was prepared by suspending colonies from 24-hours old culture in RPMI 1640 medium and adjusted to an optical density of 0.38–0.39 at 520 nm. 100 μL of yeast suspension was dispensed into each well of a microtitre plate using a multichannel pipette and the plates were incubated in a shaking incubator at 37°C with 75 rpm for 90 minutes to allow adherence of yeast on the surface of each well. After the adhesion phase, the non-adherent cells were removed and each well was washed twice with 150 μL PBS. 100 μL of RPMI 1640 medium was transferred to each washed well and the plates were incubated at 37°C in a shaking incubator at 75 rpm for 24 hours to allow biofilm formation. Following biofilm phase, the medium was aspirated and each well was washed twice gently with 200 μL PBS to remove non-adherent cells. Residual PBS was removed by inverting the plates over an absorbent paper before addition of peptides. […] Antifungal agent-free wells and biofilm-free wells were included as positive and negative controls. After treatment with peptides, the medium was removed and each well was washed twice with 200 μL PBS. The biofilm formation was quantified by using XTT reduction assay as described below. Each experiment was repeated three times in duplicate.\nXTT reduction assay was performed according to the method adapted from Jin et al.[44] Briefly, XTT (Sigma) was dissolved to a concentration of 1 mg/ml using sterile PBS. XTT solution was then filter-sterilized using a 0.22 μm-pore-size filter and kept at −70°C prior to use. 0.4 mM menadione solution was prepared by dissolving menadione (Sigma) with acetone. The menadione solution was filter-sterilized and kept at −70°C before use. Prior to each assay, XTT solution was thawed and mixed with menadione solution at a volume ratio of 20:1. After washing, a total volume of 200 μL of XTT-menadione mixture (158 μL of PBS, 40 μL of XTT and 2 μL of menadione) was added to each prewashed biofilm and control wells. The plates were incubated in the dark for 2 hours at 37°C. 100 μL of the solution was transferred to new wells and the colorimetric change in the solution was measured using a microtiter plate reader at 490 nm. Antibiofilm activity of the peptides and conventional antifungals was expressed as the biofilm-eradicating concentration 2 (BEC-2), which is defined as the minimum concentration of the peptides resulting in 50% reduction of the biofilm viability compared to the growth control."}, "[6]": {"tested_on": "Candida albicans SC 5314", "assay": "MIC, broth microdilution (CLSI M27-A2)", "type": "cell-based", "settings": "Candida albicans, SC5314; C. albicans SC 5314; RPMI 1640-MOPS, 48 h, 37°C; lowest concentration inhibiting 90% growth; three times in duplicate; read-out: Minimum Inhibitory Concentration (MIC)", "protocol": "as §1, §2"}, "[7]": {"tested_on": "Candida parapsilosis ATCC 22019", "assay": "MIC, broth microdilution (CLSI M27-A2)", "type": "cell-based", "settings": "Lodderomyces parapsilosis, ATCC22019; C. parapsilosis ATCC 22019; RPMI 1640-MOPS, 48 h, 37°C; lowest concentration inhibiting 90% growth; three times in duplicate; read-out: Minimum Inhibitory Concentration (MIC)", "protocol": "as §1, §2"}, "[8]": {"tested_on": "Candida krusei ATCC 6258", "assay": "MIC, broth microdilution (CLSI M27-A2)", "type": "cell-based", "settings": "Pichia kudriavzevii, ATCC6258; C. krusei ATCC 6258; RPMI 1640-MOPS, 48 h, 37°C; lowest concentration inhibiting 90% growth; three times in duplicate; read-out: Minimum Inhibitory Concentration (MIC)", "protocol": "as §1, §2"}, "[9]": {"tested_on": "Candida albicans ATCC 90028", "assay": "MIC, broth microdilution (CLSI M27-A2)", "type": "cell-based", "settings": "Candida albicans, ATCC90028; C. albicans ATCC 90028; RPMI 1640-MOPS, 48 h, 37°C; lowest concentration inhibiting 90% growth; three times in duplicate; read-out: Minimum Inhibitory Concentration (MIC)", "protocol": "as §1, §2"}}}
{"smiles": "C[C@@H]1[C@H](O)[C@@H](C)/C=C/C=C/C=C/C=C/C=C/C=C/C=C/[C@H](O[C@@H]2O[C@H](C)[C@@H](O)[C@H](N)[C@@H]2O)C[C@@H]2O[C@](O)(C[C@@H](O)C[C@@H](O)[C@H](O)CC[C@@H](O)C[C@@H](O)CC(=O)O[C@H]1C)C[C@H](O)[C@H]2C(=O)O", "note": "[Amphotericin B, reference compound]", "values": [{"measurement": "MIC values, range", "setting": "[1]; range against four Candida strains (C. albicans and non-albicans species)", "result": "0.5 to 1", "unit": "µg/mL"}, {"measurement": "IC50", "setting": "[2]; 24 h", "result": "8.13 ± 4.54", "unit": "µg/mL"}, {"measurement": "IC50", "setting": "[2]; 48 h", "result": "7.64 ± 2.95", "unit": "µg/mL"}, {"measurement": "IC50", "setting": "[2]; 72 h", "result": "15.3 ± 3.72", "unit": "µg/mL"}, {"measurement": "IC50", "setting": "[3]; 24 h", "result": "9.91 ± 3.35", "unit": "µg/mL"}, {"measurement": "IC50", "setting": "[3]; 48 h", "result": "7.78 ± 1.7", "unit": "µg/mL"}, {"measurement": "IC50", "setting": "[3]; 72 h", "result": "9.1 ± 0.98", "unit": "µg/mL"}, {"measurement": "% killing", "setting": "[4]; within 2 hours", "result": "> 99.99", "unit": "%"}, {"measurement": "mean log reduction in viable cells", "setting": "[4]; within 2 hours, RPMI, 37°C, mean ± SD of three experiments", "result": "5.44 ± 0.07", "unit": "log CFU/mL"}, {"measurement": "BEC-2 values", "setting": "[5]", "result": "<1", "unit": "mg/L"}, {"measurement": "BEC-2 values", "setting": "[5]; listed as amphotericin B", "result": "> 1", "unit": "mg/L"}, {"measurement": "MIC", "setting": "[6]", "result": 1, "unit": "µg/mL"}, {"measurement": "MIC", "setting": "[7]", "result": 1, "unit": "µg/mL"}, {"measurement": "MIC", "setting": "[8]", "result": 1, "unit": "µg/mL"}, {"measurement": "MIC", "setting": "[9]", "result": 0.5, "unit": "µg/mL"}]}
{"smiles": "OC(Cn1cncn1)(Cn1cncn1)c1ccc(F)cc1F", "note": "[Fluconazole, reference compound]", "values": [{"measurement": "MIC values, range", "setting": "[1]; range for two C. albicans strains and C. parapsilosis", "result": "1 to 2", "unit": "µg/mL"}, {"measurement": "reduction in yeast growth", "setting": "[4]", "result": "> 99.9", "unit": "%"}, {"measurement": "BEC-2 values", "setting": "[5]", "result": ">4", "unit": "mg/L"}, {"measurement": "BEC-2 values", "setting": "[5]; listed as fluconazole", "result": "> 4", "unit": "mg/L"}, {"measurement": "MIC", "setting": "[6]", "result": 1, "unit": "µg/mL"}, {"measurement": "MIC", "setting": "[7]", "result": 1, "unit": "µg/mL"}, {"measurement": "MIC", "setting": "[8]", "result": 64, "unit": "µg/mL"}, {"measurement": "MIC", "setting": "[9]", "result": 2, "unit": "µg/mL"}]}
